Laboratory results taken from patent US20250144107A1, “USE OF A PIKFYVE INHIBITOR IN COMBINATION WITH IMMUNOTHERAPY” (The Regents of the University of Michigan, priority 2023, published 2025).

Key:
[1] = system: KPC1361 cells; assay: MHC-I surface expression in Pikfyve-wildtype, Pikfyve-null, Atg5-null or Atg7-null cells; type: cell-based, mouse; conditions: Pikfyve-wildtype cells, autophagy inhibition
From the text: FIG. 1F (Left) is line graphs of flow cytometry measuring MHC-I surface expression in KPC1361 cells with or without Pikfyve KO, treated with DMSO, Bafilomycin, chloroquine, Apilimod, or ESK981; (Right) is bar graphs of quantification of flow cytometry measuring MHC-I surface expression in KPC1361 cells with or without Pikfyve KO, treated with DMSO, Bafilomycin, chloroquine, Apilimod, or ESK981.
FIG. 1G (Left) is a line graph of flow cytometry measuring MHC-I surface expression in KPC1361 cells with non-targeting single-guide RNA (control), or single-guide RNAs depleting Atg5 or Atg7, treated with DMSO or Apilimod; (Right) is a bar graph of quantification of flow cytometry measuring MHC-I surface expression in KPC1361 cells with non-targeting single-guide RNA (control), or single-guide RNAs depleting Atg5 or Atg7, treated with DMSO or Apilimod.
Cancer cells or the OVA-expressing cancer cells treated in vitro were harvested from dishes, resuspended in buffer MACS (PBS containing 2% FBS and 2 mM EDTA), and stained with Zombie NIR™ Fixable Viability kit (BioLegend: #423106) and fluorophore-conjugated antibody against MHC-I or PE-conjugated antibody against SIINFEKL bound H-2Kb (BioLegend; catalog #141604), respectively. The cells were next washed twice with 1 ml MACS and fixed with 2% paraformaldehyde in PBS for 15 minutes at room temperature. The cells were then subjected to the flow cytometer (SONY SH800S) for measuring surface expression of MHC-I or SIINFEKL bound H-2Kb, respectively. Antibodies used in this study include anti-H-2Kb (BD Biosciences; catalog #553570) and anti-H-2Db (28-14-8; Thermo Fisher Scientific; catalog #12-5999-82) for KPC1361 and B16-F10, anti-H-2Kd (BD Biosciences; catalog #562004) and anti-H-2Dd (BD Biosciences; catalog #553580) for 4T1, anti-H-2Kq (BD Biosciences; catalog #742296) and anti-H-2Dq/H-2Lq (BD Biosciences; catalog #744853) for MyC-CaP, and anti-HLA-A,B,C (clone w6/32; BioLegend; catalog #311406) for human cancer cells.

[2] = system: cDCs; assay: Phenotype of cultured cDCs (flow cytometry, western blot); type: cell-based, mice; conditions: DCs in vitro, each agent
Procedure: FIG. 13G (Left) is a line graph of the relative median fluorescent intensity of the surface MHC-I on DMSO or apilimod-treated cDCs treated for 20 hours after 6 days of culture. FIG. 13G (Right) is a box and whisker plot of the surface MHC-I on DMSO or apilimod-treated cDCs treated for 20 hours after 6 days of culture
FIG. 13H a western blot showing the total vinculin, loading control, and total MHC-I in DMSO or apilimod-treated, 20 hours, cDC lysates after 6 days of culture.
FIG. 13K (Left) is a line graph of the relative median fluorescent intensity of the surface MHC-II on DMSO or apilimod-treated, 20 hours, cDCs treated after 6 days of culture. FIG. 13K (Right) is a box and whisker plot of the surface MHC-II on DMSO or apilimod-treated, 20 hours, cDCs treated after 6 days of culture.
FIG. 13L a western blot showing the total vinculin, loading control, and total MHC-II in DMSO or apilimod-treated, 20 hours, cDC lysates after 6 days of culture.
FIG. 13N a western blot showing the total histone H3, loading control, and total CD80 and CD86 in apilimod-treated, 20 hours, PIKfyve WT vs. KO cDC lysates after 6 days of culture.
FIG. 13P is a series of six scatter plots of surface CD80 and CD86 on DMSO or apilimod-treated cDCs, with or without 20 hours of PolyI:C, 50 μg/ml, or lipopolysaccharide (LPS), 50 ng/ml, treatment after 6 days of culture.
FIG. 13R a western blot showing the total vinculin, loading control, and total CD40 in DMSO or apilimod-treated, 20 hours, cDC lysates treated with or without additional LPS, 50 ng/ml, after 6 days of culture day 6.
FIG. 19B is a line graph of representative density plot of median fluorescent intensity of surface XCR1 in DMSO or apilimod-treated, 20 hours, cDCs after 6 days of culture.
FIG. 26G is a line graph of the relative median fluorescent intensity of the surface MHC-I, H2-kb, H2-kd, on DMSO or apilimod-treated cDCs with or without PolyI:C, 50 μg/ml or LPS, 50 ng/ml, treatment, 20 hours, after 6 days of culture.
FIG. 26H is a line graph of the relative median fluorescent intensity of the surface MHC-II, MHC-IA-IE, on DMSO or apilimod-treated cDCs with or without PolyI:C, 50 μg/ml or LPS, 50 ng/ml, treatment, 20 hours, after 6 days of culture.

[3] = system: B16F10-OVA tumors; assay: B16F10-OVA tumor model with PolyI:C adjuvant; type: in vivo, mice; conditions: treatment after inoculation, each agent alone
Procedure: FIG. 16F is a series of four line graphs of the Individual growth curves of subcutaneous B16F10-OVA tumor volume following 21 days of pre-treatment with vehicle versus apilimod, 30 mg/kg daily, with or without subcutaneous injection of water versus PolyI:C, 100 μg on Day 1 and Day 14.
FIG. 16H is a series of four line graphs of the Individual growth curves of subcutaneous B16F10-OVA tumor volume in mice treated with vehicle or apilimod, 30 mg/kg daily, with or without a subcutaneous injection of water versus PolyI:C, 100 μg once weekly.
FIG. 26I is a line graph of the subcutaneous tumor volume of B16F10-OVA tumors following 21 days of pre-treatment with vehicle versus apilimod, 30 mg/kg×5 days/week, with or without subcutaneous injection of water versus PolyI:C, 100 μg on Day 1 and Day 14.
FIG. 26J is a line graph of the subcutaneous tumor volume of B16F10-OVA tumors in mice treated with vehicle or apilimod, 30 mg/kg×5 days/week, with or without subcutaneous injection of water versus PolyI:C, 100 μg once weekly.

Compound: CCN(CC)CCCC(C)Nc1ccnc2cc(Cl)ccc12 (centres unmarked) [chloroquine]
- MHC-I surface expression [1]: induced

Compound: lipopolysaccharide [LPS]
- MHC-I and MHC-II expression [2]: stimulated

Compound: bafilomycin
- MHC-I surface expression [1]: induced

Compound: PolyI:C
- tumor growth [3]: modest tumor growth inhibition
- MHC-I and MHC-II expression [2]: stimulated
